Patent US20260199485A1, “RNA DEGRADERS AND USES THEREOF” (Arrakis Therapeutics, Inc., priority 2022, published 2026)

What follows are compounds tested against T1, CNOT7 (Homo sapiens, UniProt Q9UIV1) (assay: Binding of compounds to CNOT7 by surface plasmon resonance (SPR)). Details: Table 4; dissociation constant for CNOT7.
T1 construct: biotin (biotinylated); purchased Ichor Life Sciences
Method: Surface plasmon resonance (SPR) was used to evaluate the binding of compounds to CNOT7. Experiments were performed on a Biacore 8K (Cytiva) with a running buffer consisting of 20 mM HEPES pH7.5, 100 mM KCl, 3 mM MgCl2, 1 mM TCEP, 0.05% tween-20, 2% DMSO. Briefly, biotinylated CNOT7 (Ichor Life Sciences) at a concentration of 70 μg/ml was immobilized to a streptavidin coated chip (Cytiva sensor chip SA) for 1200 sec at a flow rate of 5 μl/min (typical immobilization level 7,500 RU). For compound binding experiments, various concentrations of analyte were flowed over the chip with 120 sec association phase, 120 sec dissociation phase, at a flow rate of 30 ul/min and collection rate of 10 Hz. Reference channel subtraction and solvent correction were applied to all sensograms prior to data analysis. Sensograms were fit to 1:1 steady state affinity model. FIGS. 3 and 4 show the binding of exemplary compounds and the AMP control (a known CNOT7 active site binder) at various concentrations to CNOT7.

T1 sequence (Q9UIV1 whole entry): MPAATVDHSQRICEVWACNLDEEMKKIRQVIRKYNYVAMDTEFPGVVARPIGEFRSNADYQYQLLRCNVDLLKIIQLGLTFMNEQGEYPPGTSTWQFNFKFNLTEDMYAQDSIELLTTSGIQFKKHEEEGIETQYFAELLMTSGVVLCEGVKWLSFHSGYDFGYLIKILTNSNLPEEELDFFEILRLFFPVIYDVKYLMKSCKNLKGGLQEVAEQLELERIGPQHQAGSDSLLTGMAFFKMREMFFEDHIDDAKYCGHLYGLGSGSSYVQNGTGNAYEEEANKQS

Kd | SMILES
> 25 µM | COc1cccc(CNC(=O)CSc2nc(=O)[nH]cc2C)c1 [Compound I-5]
> 25 µM | O=C(CSc1cc[nH]c(=O)n1)NCc1ccc2c(c1)OCO2 [Compound I-2]

Same assay, conditions: Table 5; dissociation constant for CNOT7 by SPR

Kd | SMILES
1 to 25 µM | CCOc1ccc([C@@H](C)NC(=O)CSc2nc(=O)[nH]cc2C)cc1 [Compound I-277]
> 25 µM | COc1ccc([C@H](C)NC(=O)CSc2nc(=O)[nH]cc2C)cc1 [Compound I-26]
1 to 25 µM | COCC(Sc1nc(=O)[nH]cc1C)C(=O)NC(C)c1ccc(OC)cc1 (stereo not shown) [Compound I-267]
1 to 25 µM | COCCOCCC(Sc1nc(=O)[nH]cc1C)C(=O)NCc1ccc(OC)cc1 (stereo not shown) [Compound I-165, 4-(2-methoxyethoxy)-N-[(4-methoxyphenyl)methyl]-2-[(5-methyl-2-oxo-1H-pyrimidin-4-yl)sulfanyl]butanamide]
> 25 µM | COc1ccc(CN2CC[C@H](Sc3nc(=O)[nH]cc3C)C2=O)cc1 [Compound I-254]
1 to 25 µM | Cc1c[nH]c(=O)nc1SCC(=O)NCc1ccc2c(c1)OCCO2 [Compound I-50]
1 to 25 µM | COc1cnc(CNC(=O)CSc2nc(=O)[nH]cc2C)nc1 [Compound I-44]
> 25 µM | Cc1c[nH]c(=O)nc1SCC(=O)NCc1ccc2c(c1)NCCO2 [Compound I-54]
1 to 25 µM | CCc1c[nH]c(=O)nc1SCC(=O)N[C@H](C)c1ccc(OC)cc1 [Compound I-226]
1 to 25 µM | COc1ccc([C@@H](CO)NC(=O)CSc2nc(=O)[nH]cc2C)cc1 [Compound I-48]
1 to 25 µM | COc1ccc(CNC(=O)C(C)Sc2nc(=O)[nH]cc2C)cc1 (stereo not shown) [Compound I-168]
1 to 25 µM | CCC(Sc1nc(=O)[nH]cc1C)C(=O)NCc1ccc(OC)cc1 (stereo not shown) [Compound I-170]
1 to 25 µM | COC[C@H](Sc1nc(=O)[nH]cc1C)C(=O)N[C@H](C)c1ccc2c(c1)CC(=O)N2 [Compound I-193]
> 25 µM | COc1ccc(C(C)NC(=O)C2CC2c2nc(=O)[nH]cc2C)cc1 (stereo not shown) [Compound I-238]
1 to 25 µM | COc1ccc(C(C)NC(=O)CSc2nc(=O)[nH]cc2C)cc1 (stereo not shown) [Compound I-28]
> 25 µM | COc1ccc(C(C)NC(=O)CSc2nc(=O)[nH]cc2C2CC2)cc1 (stereo not shown) [Compound I-225]
> 25 µM | COc1ccc2c(c1)CN(C(=O)CSc1nc(=O)[nH]cc1C)C2 [Compound I-205]
0.1 to 1 µM | COCC(Sc1nc(=O)[nH]cc1C)C(=O)NCc1ccc2c(c1)CC(=O)N2 (stereo not shown) [Compound I-191]
1 to 25 µM | COc1ccc([C@@H](C)NC(=O)CSc2nc(=O)[nH]cc2C)cc1 [Compound I-27]
> 25 µM | Cc1c[nH]c(=O)nc1SCC(=O)NCc1ccc2c(c1)N(C)CCO2 [Compound I-55]
1 to 25 µM | Cc1c[nH]c(=O)nc1SCC(=O)N[C@@H](c1ccc(O)cc1)C1CC1 [Compound I-219]
> 25 µM | COc1ccc(C(C)NC(=O)CSc2nc(=O)[nH]cc2OC)cc1 (stereo not shown) [Compound I-230]

Same assay, conditions: Table 6; dissociation constant for CNOT7 by SPR

Kd | SMILES
0.1 to 1 µM | COc1ccc([C@@H](C)NC(=O)CSc2nc(=O)[nH]cc2C)c(C)c1 [Compound I-248]
1 to 25 µM | COc1cnc(CNC(=O)CSc2nc(=O)[nH]cc2C)cn1 [Compound I-45]
1 to 25 µM | COCCOC[C@@H](Sc1nc(=O)[nH]cc1C)C(=O)N[C@H](C)c1ccc(OC)cc1 [Compound I-172]
1 to 25 µM | Cc1c[nH]c(=O)nc1SCC(=O)N[C@H](C)c1ccc2c(c1)CC(=O)N2 [Compound I-190]
1 to 25 µM | COc1ccc([C@@H](C)NC(=O)C2(Sc3nc(=O)[nH]cc3C)CCC2)cc1 [Compound I-324]
1 to 25 µM | COc1ccc([C@@H](NC(=O)CSc2nc(=O)[nH]cc2C)C(C)C)cc1 [Compound I-327]
1 to 25 µM | Cc1c[nH]c(=O)nc1SCC(=O)NC(C)c1ccc2c(c1)CC(=O)N2 (stereo not shown) [Compound I-322]
1 to 25 µM | C#CCOCCOCCOCC(Sc1nc(=O)[nH]cc1C)C(=O)NC(C)c1ccc(OC)cc1F (stereo not shown) [Compound I-326]
1 to 25 µM | COc1c(F)cc([C@@H](C)NC(=O)CSc2nc(=O)[nH]cc2Cl)cc1F [Compound I-313]
1 to 25 µM | COc1ccc([C@@H](C)NC(=O)CSc2cc(=O)[nH]cc2C)nc1 [Compound I-281]
1 to 25 µM | Cc1c[nH]c(=O)nc1SCC(=O)N[C@@H](C)c1ccc2c(c1)CC(=O)N2 [Compound I-328]
1 to 25 µM | COCC(Sc1nc(=O)[nH]cc1Cl)C(=O)NC(C)c1ccc2c(c1)CC(=O)N2 (stereo not shown) [Compound I-323]
1 to 25 µM | C#CCOCCOCCOCCOC[C@@H]1Cc2cc(OC)ccc2CN1C(=O)CSc1nc(=O)[nH]cc1C [Compound I-203]

Same assay, conditions: dissociation constant by SPR, Table 7

Kd | SMILES
> 25 µM | COc1ccc(C(CN(C)C)NC(=O)CSc2nc(=O)[nH]cc2C)cc1 (stereo not shown) [Compound I-340]
> 25 µM | COc1ccc(CNC(=O)[C@H](CCOCCOCCOCCN=[N+]=[N-])Sc2nc(=O)[nH]cc2Cl)cc1 [Compound I-400]
1 to 25 µM | COc1ccc2c(c1)[C@H](COCCOCCOCCOCCN=[N+]=[N-])CN(C(=O)CSc1nc(=O)[nH]cc1Cl)[C@@H]2C [Compound I-426]
1 to 25 µM | COCCOCCC(Sc1nc(=O)[nH]cc1C)C(=O)NCc1ccc(OC)cc1 (stereo not shown) [Compound I-443]
> 25 µM | C#CCOCCOCCOCCOC[C@H]1Cc2cc(OC)ccc2[C@@H](C)N1C(=O)CSc1nc(=O)[nH]cc1Cl [Compound I-433]
1 to 25 µM | COC[C@H](Sc1nc(=O)[nH]cc1Cl)C(=O)N[C@H](C)c1ccc2c(c1)CC(=O)N2 [Compound I-334]
1 to 25 µM | Cc1c[nH]c(=O)nc1S[C@H](COCCOCCOCCN=[N+]=[N-])C(=O)NCc1ccc2c(c1)CC(=O)N2 [Compound I-407]
0.1 to 1 µM | COc1ccc([C@@H](C)NC(=O)C2(Sc3nc(=O)[nH]cc3C)CCC2)cc1 [Compound I-324]
1 to 25 µM | COc1ccc(CNC(=O)[C@H](CCc2ccc(O)cc2)Sc2nc(=O)[nH]cc2C)cc1 [Compound I-489]
1 to 25 µM | C#CCOCCOCCOCCOC[C@@H]1Cc2cc(OC)ccc2[C@@H](C)N1C(=O)CSc1nc(=O)[nH]cc1Cl [Compound I-432]
1 to 25 µM | COC[C@@H](Sc1nc(=O)[nH]cc1C)C(=O)N[C@@H](C)c1ccc2c(c1)CC(=O)N2 [Compound I-332]
1 to 25 µM | COc1ccc([C@@H](NC(=O)CSc2nc(=O)[nH]cc2C)C(C)C)cc1 [Compound I-327]
> 25 µM | COc1ccc2c(c1)C[C@H](COCCOCCOCCOCCN=[N+]=[N-])N(C(=O)CSc1nc(=O)[nH]cc1C)C2 [Compound I-487]
1 to 25 µM | COc1ccc([C@@H](C)NC(=O)[C@@H](COCCOCCOCCN=[N+]=[N-])Sc2nc(=O)[nH]cc2Cl)c(F)c1 [Compound I-392]
1 to 25 µM | C#CCOCCOCCOCC(Sc1nc(=O)[nH]cc1C)C(=O)NC(C)c1ccc(OC)cc1F (stereo not shown) [Compound I-326]
1 to 25 µM | COCC(Sc1nc(=O)[nH]cc1C)C(=O)NC(C)c1ccc2c(c1)CC(=O)N2 (stereo not shown) [Compound I-331]
1 to 25 µM | COCCN1CCN(CCC(Sc2nc(=O)[nH]cc2C)C(=O)NCc2ccc(OC)cc2)CC1 (stereo not shown) [Compound I-499]
1 to 25 µM | COc1ccc(CNC(=O)[C@H](COCCOCCOCCN=[N+]=[N-])Sc2nc(=O)[nH]cc2C)cc1 [Compound I-404]
1 to 25 µM | Cc1c[nH]c(=O)nc1SCC(=O)N[C@@H](C)c1ccc2c(c1)CC(=O)N2 [Compound I-328]
1 to 25 µM | COc1ccc(CNC(=O)[C@@H](COCCOCCOCCN=[N+]=[N-])Sc2nc(=O)[nH]cc2C)c(F)c1 [Compound I-405]
1 to 25 µM | COCC(Sc1nc(=O)[nH]cc1Cl)C(=O)NC(C)c1ccc2c(c1)CC(=O)N2 (stereo not shown) [Compound I-323]
1 to 25 µM | COCCOCC#CCC(Sc1nc(=O)[nH]cc1C)C(=O)NCc1ccc(OC)cc1 (stereo not shown) [Compound I-500]
1 to 25 µM | COc1ccc([C@@H](C)NC(=O)[C@H](COCCOCCOCCN=[N+]=[N-])Sc2nc(=O)[nH]cc2C)c(F)c1 [Compound I-368]
> 25 µM | COc1ccc(CNC(=O)C(CCC(=O)N2CCN(C)CC2)Sc2nc(=O)[nH]cc2C)cc1 (stereo not shown) [Compound I-491]
